Data from US20220313719A1, “METHODS OF TREATING DISEASES ASSOCIATED WITH CHANGES IN PLATELET COUNTS USING PROTEIN KINASE A ACTIVATOR AND INHIBITOR” (Soochow university, priority 2017, published 2022).

Columns and labels:
platelets = assay: Anti-platelet antibody R300-induced platelet clearance (ITP mouse model); assay type: in vivo, ICR mice; settings: for platelet counts versus NS group at 30 min: injection 10 min before R300 (0.1 μg/g), PGE2 20 ng/ml, cAMP 12 μg/ml, P<0.05
Description: After 10 min, the anti-platelet antibody R300 (0.2 μg/kg) was intraperitoneally injected into the mice, and the whole blood was collected from the orbital vein at different time points. The platelets were counted by a Sysmex XP-100 blood analyzer, 6 mice were used per group, and the results were expressed as mean±standard deviation (FIG. 12C).
12 ICR mice were divided into two groups with 6 mice in each group. The 6 mice in the experimental group were injected with milrinone (1 mg/kg), and the 6 mice in the control group were injected with normal saline (NS). 10 min after the mice were injected with the milrinone (1 mg/kg) (or NS) in the tail vein, the mice were intraperitoneally injected with the R300 antibody (0.1 mg/kg). Blood sampling and counting were then carried out at each time point.
First, the mice were sampled for blood as a reference value. Then the control group and the test group were injected with 0.9% NS and PGE2 (20 ng/ml), respectively. After 10 min, R300 (0.1 μg/g) was injected. Blood sampling and counting were then carried out at 30 min, 2 h, 4 h, 6 h, and 24 h.
First, the mice were sampled for blood as a reference value. Then the control group and the test group were injected with 0.9% NS and cAMP (12 μg/ml), respectively. After 10 min, R300 (0.1 μg/g) was injected. Blood sampling and counting were then carried out at 30 min, 2 h, 4 h, 6 h, and 24 h.
First, the mice were sampled for blood as a reference value. Then the control group and the test group were injected with 0.9% NS and aminophylline (0.24 mmol/L), respectively. After 10 min, R300 (0.1 μg/g) was injected. Then blood sampling and counting were carried out at 30 min, 2 h, 4 h, 6 h, and 24 h (FIG. 20).

washed platelets [1] = assay: Fasudil platelet apoptosis (ΔΨm and PS exposure) with thrombin; assay type: cell-based, human; settings: 10 min room temperature, then thrombin 0.1 U/ml 30 min 37° C.
Description: Washed platelets (3×10^8/mL) were incubated with different Fasudil or negative control (normal saline) for 10 min at room temperature. Thereafter, except the negative control, thrombin (0.1 U/ml) was added to each group, and incubation was carried out for 30 min at 37° C. Platelet ΔΨm was measured using the lipophilic cationic dye JC-1. JC-1 with a final concentration of 2 μg/ml was added to the treated platelets, and the platelets were incubated at 37° C. for 5 min in the dark, and detected by using the flow cytometer. […] The JC-1 monomer (λex 514 nm, λem 529 nm) and the polymer (λex 585 nm, λem 590 nm) were determined by calculating the proportion of flow red fluorescence (JC-1 polymer) or green fluorescence (JC-1 monomer) (FIG. 22).
Washed platelets (3×10^8/mL) were incubated with different Fasudil or negative control (normal saline) for 10 min at room temperature. Thereafter, except the negative control, thrombin (0.1 U/ml) was added to each group, and incubation was carried out for 30 min at 37° C. After that, Annexin V buffer, treated platelets, and Annexin V-FITC in a ratio of 50:10:1 were incubated for 15 min at room temperature in the dark, and detected by using the flow cytometer (FIG. 22).

caspase-3 = assay: Western blot of caspase-3, gelsolin and caspase-3 activity in platelets; assay type: cell-based, human; settings: different concentrations of H89, 22° C., 30 min
Description: Washed platelets were incubated with different concentrations of H89 (25 μM, 50 μM, and 100 μM) or negative control (DMSO) at room temperature for 10 min. The reaction was stopped by the addition of 2× cell lysis buffer (containing 2 mM PMSF, 2 mM NaF, 2 mM Na3VO4, and protease inhibitor), and the platelets were lysed on ice, and sampled. The samples were tested for expression of the corresponding proteins by Western blotting.
(§1) Different concentrations of H89 (0, 12.5, 25, 37.5, and 50 μM) were applied to washed platelets at 22° C. for 160 min, and mitochondrial transmembrane potential depolarization and PS exposure of platelets were detected by using the flow cytometer. The experiments were repeated four times. The washed platelets were pretreated with different concentrations of H89 at 22° C. for 30 min. At the same time, DMSO and A23187 treated negative control group and positive control group platelets were established. Caspase-3, gelsolin protein expression and caspase-3 activity in platelets were detected by Western blot. The FITC-labeled anti-CD41 antibody was mixed with the pre-treated platelets at a ratio of 1:10, and incubated at room temperature for 10 min in the dark. Analyzing the platelet size scatter plot, the decrease in the CD41 positive cell count represents a decrease in the platelet count. […]

washed platelets [2] = assay: Mitochondrial membrane potential (ΔΨm) detection with JC-1 by flow cytometer; assay type: cell-based, human
Description: When washed platelets were prepared, venous blood from healthy volunteers was anticoagulated with ACD (2.5% sodium citrate, 2.0% glucose, and 1.5% citric acid) at 1:7, platelet-rich plasma (PRP) was obtained by centrifugation at 1300 rpm for 20 min, the PRP was centrifuged at 1500 g for 2 min, and the supernatant was discarded. The precipitated platelets were suspended, centrifuged and washed with CGS buffer (0.123 M sodium chloride, 0.033 M glucose, 0.013 M sodium citrate, pH 6.5). […] The platelets were counted by a counter. […]
Washed platelets (3×10^8/mL) were incubated with different concentrations of H89 (12.5 μM, 25 μM, 37.5 μM and 50 μM) or negative control (DMSO) for 10 min at room temperature, and then platelet ΔΨm was determined using the lipophilic cationic dye JC-1. JC-1 with a final concentration of 2 μg/ml was added to the treated platelets, and the platelets were incubated at 37° C. for 20 min in the dark, and detected by using a flow cytometer. […] The JC-1 monomer (λex 514 nm, λem 529 nm) and the polymer (λex 585 nm, λem 590 nm) were determined by calculating the proportion of flow red fluorescence (JC-1 polymer) or green fluorescence (JC-1 monomer). […]

washed platelets [3] = assay: Platelet shrinkage experiment (FSC of GPIIb/IIIa positive platelets); assay type: cell-based, human
Description: Washed platelets were incubated with different concentrations of H89 (12.5 μM, 25 μM, 37.5 μM and 50 μM) or negative control (DMSO) at room temperature for 10 min. The platelets and the SZ21 antibody were then incubated for 30 min at room temperature. The platelets were centrifuged, resuspended with the FITC-labeled goat-anti-mouse antibody, and incubated for 30 min at room temperature in the dark. The platelets were collected by using a flow cytometer, and platelet scatter plots collected by FSC-FL1 were used to analyze the platelets. The degree of shrinkage of the platelets was evaluated by analyzing the change in FSC and evaluating the degree of FSC reduction in GPIIb/IIIa positive cells. A23187 was used as a positive control. DMSO was used as a negative control.
as §1, with “blot.” for “blot. The FITC-labeled anti-CD41 antibody was mixed with the pre-treated platelets at a ratio of 1:10, and incubated at room temperature for 10 min in the dark. Analyzing the platelet size scatter plot, the decrease in the CD41 positive cell count represents a decrease in the platelet count.”

BAD position 155 = assay: Western blot / co-immunoprecipitation of BAD Ser155 phosphorylation and Bel-xL in platelets; assay type: cell-based, human; settings: 37.5 uM H89 or 10 uM forskin, 160 min
Description: Next, we further explored the mechanism by which PKA inhibits induction of platelet apoptosis. At room temperature, 3×10^8/mL washed platelets were incubated with different concentration gradients of H89 or the DMSO internal reference for 160 min. The platelets were lysed on ice for 30 min with an equal volume of lysis buffer. The product was electrophoretically separated by SDS-PAGE to obtain protein fragments of different sizes. The protein fragments were blocked in skim milk powder for one hour and then the primary antibody was added for incubation. […] The washed platelets were pretreated with 37.5 uM H89, 10 uM forskin and the DMSO internal reference respectively for 160 min at room temperature. Cytoplasmic proteins (FIG. 8B) and mitochondrial proteins (FIG. 8D) were extracted from the platelets, respectively. The interest proteins were detected by western blot. The amount of the interest proteins was analyzed by Image J software. Four experiments were counted to show the results in mean±standard deviation. After lysis, the pre-treated platelets were centrifuged at 17,000 g for 10 min at 4° C. The obtained supernatant was incubated with the corresponding antibody for precipitation overnight, and after incubation with protein A/G+ agarose beads at 4° C. for 2 hours, the beads were eluted for protein hybridization (FIG. 8C).

stored platelets = assay: Clearance of stored platelets in the body; settings: in vivo
Excerpt: In addition to apoptosis, there are other changes in storage damage that result in the clearance of stored platelets in the body. Therefore, we investigated whether PKA activation protects platelet from apoptosis while preventing the stored platelets from being cleared.

washed platelets [4] = assay: Scanning electron microscopy of platelet morphology; assay type: cell-based, human; settings: 22° C., 160 min
Description: The washed platelets were fixed with 2.5% […] at 4° C. overnight. The washed platelets were sent to a scanning electron microscope sample room for sample preparation. Morphological analysis of the platelets was carried out by the scanning electron microscope (Japan Hitachi, 5-4700). Five different fields of view were selected for observation and photographing.
as §1

With `Cn1c(=O)c2[nH]cnc2n(C)c1=O` [Aminophylline, aminophylline] the “platelet clearance in vivo” value (platelets; aminophylline 0.24 mmol/L, R300 0.1 μg/g after 10 min) was “can Inhibit”.

`O=S(=O)(c1cccc2cnccc12)N1CCCNCC1` [Fasudil] was tested, and the platelet apoptosis (washed platelets [1]) was “can Promote”.

With `O=S(=O)(NCCNCC=Cc1ccc(Br)cc1)c1cccc2cnccc12` [H89, N-[2-((p-bromocinnamyl)amino)ethyl]-5-isoquinoline sulfonamide] the “activation of caspase-3” value (caspase-3) was “dose-dependently induced”, the “digestion of caspase-3 substrate gelsolin” value (caspase-3) was “dose-dependently induced” and the “ΔΨm depolarization in platelets, time dependence” value (washed platelets [2]) was “in a time-dependent manner”. The “mitochondrial membrane potential (ΔΨm) depolarization in platelets, dose dependence” value (washed platelets [2]; H89 0, 12.5, 25, 37.5, 50 μM, 22° C., 160 min) was “dose-dependently induced”, the “forward scatter (FSC) of GPIIb/IIIa-positive platelets (shrinkage)” value (washed platelets [3]) was “decrease” and the “Bel-xL protein on the mitochondrial membrane” value (BAD position 155) was “decrease”. For the same compound, the “co-immunoprecipitation of Bel-xL and BAD” value (BAD position 155) was “significantly reduced”, the “phosphorylation of serine at the BAD position 155” value (BAD position 155; room temperature) was “decreased” and the “clearance of stored platelets by the body” value (stored platelets) was “speeds up the clearance”. The “typical apoptotic morphological changes (membrane vesicles, pseudopods, shrinkage, degranulation)” value (washed platelets [4]) was “dose-dependently induce”.

In the case of `CCCCC[C@H](O)/C=C/[C@H]1[C@H](O)CC(=O)[C@@H]1C/C=C\CCCC(=O)O` [PGE2, prostaglandin E2], the “platelet counts versus NS group at 30 min” value (platelets) is reported as “has statistic difference”.

In the case of `Nc1ncnc2c1ncn2[C@@H]1O[C@@H]2COP(=O)(O)O[C@H]2[C@H]1O` [cAMP, cyclic adenosine monophosphate], the “platelet counts versus NS group at 30 min” value (platelets) is reported as “has statistic difference”.

With `Cc1[nH]c(=O)c(C#N)cc1-c1ccncc1` [milrinone] the “platelet counts in peripheral blood of mice” value (platelets; milrinone 1 mg/kg tail vein, R300 0.1 mg/kg i.p. after 10 min, vs NS) was “significantly increased”.
